Consider 8 compounds from ChEMBL document CHEMBL1201862, “PubChem BioAssay data set” (2004).

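Exposure lasted 48 hours, with cells grown in 96-well plates and compounds tested at five concentrations. At the GI50, growth is halved.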 Calls of active or inactive are those of the source. Rule as the data show it: active = GI50 up to about 1.1 µM and inactive = higher.

Among the test systems are NCI-H460; K562; HOP-62; UACC-257; TK-10; MDA-MB-435; HCT-15; OVCAR-4; NCI-H23; SN12C; HCT-116; NCI/ADR-RES; SW-620; BT-549; NCI-H522; LOX IMVI; RXF 393; HL-60; EKVX; ACHN.
Common to all, as to assay: growth of human tumour cells (NCI), 48 h

On to `O=C(N/C(=C/c1ccc(Cl)cc1)c1nc2ccccc2c(=O)n1Nc1ccc([N+](=O)[O-])cc1[N+](=O)[O-])c1ccccc1`, for which the GI50 in the test on NCI-H460, in the test with K562, with HOP-62, in the test on UACC-257, with TK-10 and with MDA-MB-435 was > 100 µM (inactive) in each case. The GI50 was above 100 µM in the test with HCT-15; > 100 µM (inactive) in the test on OVCAR-4; > 100 µM (inactive) with NCI-H23; > 100 µM (inactive) in the test on SN12C; > 100 µM (inactive) with HCT-116; > 100 µM (inactive) in the test with NCI/ADR-RES. Moreover, the GI50 in the test with SW-620, with BT-549, with NCI-H522 and in the test with LOX IMVI was > 100 µM (inactive) each time.
Consider `CCCCCCc1cc2cc(-c3csc(-c4ccc(OC)cc4)n3)c(=O)oc2cc1O`, for which the GI50 in the test with RXF 393 was 13.1 µM (inactive); in the test on NCI-H460 it was 12.2 µM (inactive); with K562 it was 19.3 µM (inactive); in the test with HL-60, 33.3 µM (inactive); with EKVX, 20.2 µM (inactive); in the test on HOP-62, 14.7 µM (inactive). Also, the GI50 is 8.51 µM (inactive) in the test with UACC-257; 14 µM (inactive) in the test on TK-10; 4.9 µM (inactive) with MDA-MB-435; 17.1 µM in the test on HCT-15; 2.48 µM (inactive) in the test with OVCAR-4; 10.4 µM (inactive) with SN12C. Besides, the GI50 in the test with HCT-116 is 7.19 µM (inactive); with ACHN it was 10.9 µM (inactive); in the test with SW-620, 6.61 µM (inactive); in the test with BT-549, 2.36 µM (inactive); with LOX IMVI it was 12.6 µM (inactive).
On to `C#C[C@]1(O)CC[C@H]2[C@@H]3CCC4=C/C(=N/OCCN(C)C)CC[C@]4(C)[C@H]3CC[C@@]21C`, for which the GI50 was 21.8 µM (inactive) with NCI-H460; 6.82 µM (inactive) in the test with K562; 32.3 µM (inactive) with EKVX; 29.9 µM (inactive) with HOP-62; 52.5 µM (inactive) in the test on UACC-257; > 100 µM (inactive) with TK-10. Also, the GI50 in the test with MDA-MB-435 is 6.7 µM (inactive); in the test with HCT-15, 36.1 µM; in the test with OVCAR-4, > 100 µM (inactive); in the test on NCI-H23, 36.1 µM (inactive); in the test on SN12C it was 44.3 µM (inactive); in the test on HCT-116, 25.6 µM (inactive). Moreover, the GI50 in the test with ACHN was 54.7 µM (inactive); with NCI/ADR-RES, 41.7 µM (inactive); in the test with SW-620, 28.1 µM (inactive); in the test on BT-549 it was 65.9 µM (inactive); in the test with NCI-H522, 16.3 µM (inactive); in the test with LOX IMVI, 37.8 µM (inactive).
With `COc1cccc(-c2nc(-c3cnccn3)n(Cc3ccccc3)n2)c1`, the GI50 with RXF 393 was 25.4 µM (inactive); with NCI-H460, > 100 µM (inactive); with K562 it was > 100 µM (inactive); in the test on HL-60, > 100 µM (inactive); in the test on EKVX, > 100 µM (inactive); in the test on HOP-62, 44.4 µM (inactive). Moreover, the GI50 with UACC-257 was > 100 µM (inactive); with TK-10 it was > 100 µM (inactive); with MDA-MB-435 it was > 100 µM (inactive); with HCT-15 it was above 100 µM; in the test on OVCAR-4 it was 21.6 µM (inactive); in the test on NCI-H23, > 100 µM (inactive). The GI50 was > 100 µM (inactive) in the test on SN12C; > 100 µM (inactive) in the test on HCT-116; > 100 µM (inactive) with SW-620; > 100 µM (inactive) in the test on BT-549; 52.1 µM (inactive) with NCI-H522; > 100 µM (inactive) in the test with LOX IMVI.
On to `N=C(N)NS(=O)(=O)c1ccc(NCc2c3ccccc3nc3ccccc23)cc1`, for which the GI50 with RXF 393 was 11.9 µM (inactive); in the test with NCI-H460 it was 0.0371 µM (active); in the test on K562, 2.72 µM (inactive); in the test on HL-60, 0.0679 µM (active); with EKVX, 10.4 µM (inactive); in the test with HOP-62, 0.678 µM (active). In addition, the GI50 was 14.5 µM (inactive) in the test with UACC-257; 64.1 µM (inactive) in the test on TK-10; 32.6 µM (inactive) in the test on MDA-MB-435; 40.3 µM in the test on HCT-15; 39.5 µM (inactive) in the test with OVCAR-4; 1.09 µM (active) with NCI-H23. Besides, the GI50 was 0.637 µM (active) with SN12C; 3.01 µM (inactive) in the test on HCT-116; 1.39 µM (inactive) in the test on ACHN; 1.59 µM (inactive) in the test with SW-620; 7.16 µM (inactive) in the test with BT-549; 2.28 µM (inactive) in the test with NCI-H522. In addition, the GI50 in the test on LOX IMVI was 0.946 µM (active).
For the compound `COc1ccc2c3c1O[C@H]1[C@@H](O)CC[C@@]4(O)[C@@H](C2)N(C)CC[C@]314`, the GI50 in the test on K562 is > 100 µM (inactive); in the test with HL-60, 2.93 µM (inactive); in the test with EKVX, > 100 µM (inactive); with HOP-62, > 100 µM (inactive); in the test with UACC-257, > 100 µM (inactive); in the test on TK-10, > 100 µM (inactive). Moreover, the GI50 with MDA-MB-435 was > 100 µM (inactive); in the test on HCT-15, above 100 µM; with OVCAR-4, > 100 µM (inactive); in the test on NCI-H23, > 100 µM (inactive); in the test with SN12C it was > 100 µM (inactive); with HCT-116 it was > 100 µM (inactive). Moreover, the GI50 in the test with ACHN, with NCI/ADR-RES, in the test with SW-620, with BT-549, in the test with NCI-H522 and with LOX IMVI was > 100 µM (inactive) throughout.
Consider `CCOc1ccc(N/C(=C(/C(Cl)=C(/Cl)Nc2ccccc2)[N+](=O)[O-])n2nnc3ccccc32)cc1`, for which the GI50 in the test with NCI-H460 is 27 µM (inactive); in the test with K562, 28.8 µM (inactive); in the test with EKVX, 28.8 µM (inactive); in the test on HOP-62, 24.5 µM (inactive); with UACC-257, 34.6 µM (inactive); in the test with TK-10 it was 32.9 µM (inactive). The GI50 with MDA-MB-435 was 29.4 µM (inactive); in the test with HCT-15, 12.8 µM; in the test on OVCAR-4, 42.5 µM (inactive); with NCI-H23 it was 13.7 µM (inactive); with SN12C, 20.8 µM (inactive); with HCT-116 it was 22.8 µM (inactive). In addition, the GI50 with ACHN is 25.8 µM (inactive); in the test with NCI/ADR-RES, 20 µM (inactive); in the test on BT-549, 13.3 µM (inactive); in the test with NCI-H522 it was 14 µM (inactive).
In the case of `O=C(CCCN1CCC(O)(c2ccc(Cl)cc2)CC1)c1ccc(F)cc1` [HALOPERIDOL], the GI50 was 18.8 µM (inactive) in the test on NCI-H460; > 100 µM (inactive) in the test with K562; 82.4 µM (inactive) in the test on EKVX; 36.1 µM (inactive) with HOP-62; 20.9 µM (inactive) with UACC-257; 39.8 µM (inactive) with TK-10. The GI50 with MDA-MB-435 is 17.5 µM (inactive); in the test on HCT-15, 16.6 µM; with OVCAR-4 it was 85.7 µM (inactive); with NCI-H23, 31 µM (inactive); in the test with SN12C, 37.7 µM (inactive); with HCT-116 it was 15.1 µM (inactive). Further, the GI50 with ACHN is 39.4 µM (inactive); with NCI/ADR-RES, 30.1 µM (inactive); in the test with SW-620, 18.2 µM (inactive); with BT-549 it was 31 µM (inactive); in the test on NCI-H522, 20.6 µM (inactive); in the test on LOX IMVI, 18 µM (inactive).
